Reference: US8143212B2 (Vicuron Pharmaceuticals Inc., priority 2002, dated 2012)
Where two headings read alike, the source gives them in different places.

Tests used:
S. pneumoniae = assay: Murine thigh-infection model (time kill, dosing regimen, PK/PD, neutrophils; Tables 31-33); format: in vivo, mice; details: for 1 log kill mg/kg / 2 log kill mg/kg: total dose over 6 days
Description: Each point represents the mean of 4 thighs. Five dose levels, ranging 16-fold were used.
Five different doses (two-fold increases) were used. […] Each point represents the mean of 4 thighs.
Each point represents the mean of four thighs.
Each point represents the mean value from 4 thighs. The static dose, and the doses associated with a 1 and 2 log kill were calculated from the parameters estimated by non-linear regression using the Hill equation.

[1] = tested on: hepatic cytochrome P450 isoenzymes
[2] = human, in vivo
Description: The peak concentrations (Cmax) were obtained directly from the observed data. The area under the plasma concentration-time curve (AUC) were calculated using the linear trapezoidal rule.
Clinical Study VER001-13 examined subjects with mild and moderate renal impairment and Clinical Study VER001-1 examined subjects with severe renal impairment and subjects with end-stage renal disease (ESRD). Matched control subjects were enrolled in all studies. […] Subjects with ESRD were dependent on dialysis through the course of the study (3 times weekly).

[3] = rat, in vivo
Description: Excreta and more than 40 different tissues were collected through 70 days post-administration, and the tissue distribution and pharmacokinetics of drug-derived radioactivity were determined.
Rats (3 per time-point) were euthanized at 12, 24, 48, 72, 96, 120, 144, 168, 336, 840, 1176 and 1680 hours post dose for collection of blood, plasma, and tissues (including carcass). All samples were analyzed by LSC.
As part of the QTD studies, bile samples were collected from bile duct cannulated rats (4 animals) through 384 h (16 days) post-dose.

[4] = tested on: Gram-positive isolates, including MRSA; format: cell-based; details: baseline isolates, MITT

## CN[C@H]1C(=O)N[C@@H]2Cc3ccc(cc3)Oc3cc4cc(c3O[C@@H]3O[C@H](C(=O)O)[C@@H](O)[C@H](O)[C@H]3NC(=O)CCCCCCCCC(C)C)Oc3ccc(cc3Cl)[C@@H](O)[C@@H]3NC(=O)[C@H](NC(=O)[C@@H]4NC(=O)[C@@H](NC2=O)c2cc(cc(O)c2Cl)Oc2cc1ccc2O)c1ccc(O)c(c1)-c1c(O[C@H]2O[C@H](CO)[C@@H](O)[C@H](O)[C@@H]2O)cc(O)cc1[C@@H](C(=O)NCCCN(C)C)NC3=O [Dalbavancin]
S. pneumoniae; SP1325, q 72 h regimen
  2 Log Kill f24AUC/MIC: 17.6
  2 Log Kill mg/kg/24 h: 1.16 mg/kg/24 h
  Static Effect f24AUC/MIC: 6.0
  Static Effect mg/kg/72 h: 0.83 mg/kg/72 h
S. pneumoniae; SP1329, q 24 h regimen
  1 Log Kill f24AUC/MIC: 23.5
  1 Log Kill mg/kg/24 h: 1.18 mg/kg/24 h
  2 Log Kill f24AUC/MIC: 26.7
  2 Log Kill mg/kg/24 h: 1.45 mg/kg/24 h
  Static Effect f24AUC/MIC: 18.0
  Static Effect mg/kg/24 h: 0.90 mg/kg/24 h
S. pneumoniae; SP1396, q 72 h regimen
  1 Log Kill f24AUC/MIC: 4.3
  1 Log Kill mg/kg/24 h: 0.61 mg/kg/24 h
  2 Log Kill f24AUC/MIC: 4.8
  2 Log Kill mg/kg/24 h: 0.69 mg/kg/24 h
  Static Effect f24AUC/MIC: 4.0
  Static Effect mg/kg/72 h: 0.52 mg/kg/72 h
S. pneumoniae; SP10813, q 12 h
  1 log kill mg/kg: 2.8 mg/kg
  2 log kill mg/kg: 3.5 mg/kg
S. pneumoniae; SP10813, q 24 h
  1 log kill mg/kg: 1.54 mg/kg
  2 log kill mg/kg: 1.75 mg/kg
S. pneumoniae; SP10813, q 24 h regimen
  1 Log Kill f24AUC/MIC: 8.7
  1 Log Kill mg/kg/24 h: 1.54 mg/kg/24 h
  2 Log Kill f24AUC/MIC: 9.9
  2 Log Kill mg/kg/24 h: 1.75 mg/kg/24 h
  Static Effect f24AUC/MIC: 7.5
  Static Effect mg/kg/24 h: 1.34 mg/kg/24 h
S. pneumoniae; SP10813, q 36 h
  1 log kill mg/kg: 1.53 mg/kg
  2 log kill mg/kg: 1.81 mg/kg
S. pneumoniae; SP10813, q 72 h
  1 log kill mg/kg: 0.77 mg/kg
  2 log kill mg/kg: 0.82 mg/kg
S. pneumoniae; SP10813, q 72 h regimen
  1 Log Kill f24AUC/MIC: 1.6
  1 Log Kill mg/kg/24 h: 0.77 mg/kg/24 h
  2 Log Kill f24AUC/MIC: 1.6
  2 Log Kill mg/kg/24 h: 0.82 mg/kg/24 h
  Static Effect f24AUC/MIC: 1.4
  Static Effect mg/kg/72 h: 0.71 mg/kg/72 h
S. pneumoniae; all strains, 6 day study
  drop in cfu: > 4 log10
S. pneumoniae; every 24 h dosing
  free drug 24 h AUC/MIC associated with a static effect: 17.6±6.9
S. pneumoniae; over the 6 days of therapy, net static effect, 1 or 2 log kill
  free drug AUC/MIC required for efficacy: ~100
S. pneumoniae; single doses, highest doses studied
  extent of killing: > 2 log
[1]
  metabolism in vitro: not metabolized
  substrate, inhibitor, or inducer of hepatic cytochrome P450 isoenzymes: not a substrate, inhibitor, or inducer
[2]
  tolerability: well tolerated
[2]; 1120 mg
  Cmax: 325 µg/mL
[3]; male, Sprague-Dawley
  blood to plasma ratio of drug-derived radioactivity: < 1
[3]; male, Sprague-Dawley, 5 days
  recovered radioactivity in any single tissue: < 5 % of the dose
[3]; male, Sprague-Dawley, 70 days
  administered radioactivity retained in carcass: 2.34%
[3]
  time to maximum concentration (Cmax) in most tissues: ≤ 24 h
[4]; All S. aureus, Single dose Dalbavancin (1100 mg) group
  Dalbavancin MIC: (0.12)
[4]; All S. aureus, Standard of Care Regimens group
  Dalbavancin MIC: (0.016-0.25)
[4]; All S. aureus, Two-dose Dalbavancin (1000/500 mg) group
  Dalbavancin MIC: (0.12)
[4]; Group B streptococcus, Standard of Care Regimens group
  Dalbavancin MIC: (0.016)
[4]; Group B streptococcus, Two-dose Dalbavancin (1000/500 mg) group
  Dalbavancin MIC: (0.016)
[4]; Miscellaneous Streptococcus and nontypeable strains, Single dose Dalbavancin (1100 mg) group
  Dalbavancin MIC: (0.016)
[4]; Miscellaneous Streptococcus and nontypeable strains, Standard of Care Regimens group
  Dalbavancin MIC: (0.016)
[4]; Miscellaneous Streptococcus and nontypeable strains, Two-dose Dalbavancin (1000/500 mg) group
  Dalbavancin MIC: (0.016)
[4]; Streptococcus pyogenes, Standard of Care Regimens group
  Dalbavancin MIC: (0.016)
